Test [1] addresses T1, Matrix metalloproteinase-9 (Homo sapiens, UniProt P14780). The experiment in a line: Inhibition of human matrix metalloprotease-9 expressed in Sf9 insect cells; NA:Not active.
In test [2] the target is T2, Matrix metalloproteinase-14 (Homo sapiens, UniProt P50281). The experiment in a line: Inhibitory concentration against matrix metalloprotease-14 in Escherichia coli was determined; NA:Not active.
The target in test [3] is T3, Aminopeptidase N (Homo sapiens, UniProt P15144). The experiment in a line: Inhibitory concentration against aminopeptidase N.
For test [4], the target named is T3, Aminopeptidase N. Put plainly: Binding affinity towards aminopeptidase N.
Test [5] deals with 72 kDa type IV collagenase (Homo sapiens, UniProt P08253). The experiment in a line: Inhibition of human matrix metalloprotease-2 expressed in Sf9 insect cells; NA:Not active.
The target in test [6] is T2, Matrix metalloproteinase-14. The experiment in a line: Inhibition of human matrix metalloprotease-14 expressed in Escherichia coli.
For test [7], the target named is T1, Matrix metalloproteinase-9. Put plainly: Inhibition of human matrix metalloprotease-9 expressed in Sf9 insect cells.

pIC50, pKi: −log10 of the molar value.

T3 sequence (P15144 whole entry): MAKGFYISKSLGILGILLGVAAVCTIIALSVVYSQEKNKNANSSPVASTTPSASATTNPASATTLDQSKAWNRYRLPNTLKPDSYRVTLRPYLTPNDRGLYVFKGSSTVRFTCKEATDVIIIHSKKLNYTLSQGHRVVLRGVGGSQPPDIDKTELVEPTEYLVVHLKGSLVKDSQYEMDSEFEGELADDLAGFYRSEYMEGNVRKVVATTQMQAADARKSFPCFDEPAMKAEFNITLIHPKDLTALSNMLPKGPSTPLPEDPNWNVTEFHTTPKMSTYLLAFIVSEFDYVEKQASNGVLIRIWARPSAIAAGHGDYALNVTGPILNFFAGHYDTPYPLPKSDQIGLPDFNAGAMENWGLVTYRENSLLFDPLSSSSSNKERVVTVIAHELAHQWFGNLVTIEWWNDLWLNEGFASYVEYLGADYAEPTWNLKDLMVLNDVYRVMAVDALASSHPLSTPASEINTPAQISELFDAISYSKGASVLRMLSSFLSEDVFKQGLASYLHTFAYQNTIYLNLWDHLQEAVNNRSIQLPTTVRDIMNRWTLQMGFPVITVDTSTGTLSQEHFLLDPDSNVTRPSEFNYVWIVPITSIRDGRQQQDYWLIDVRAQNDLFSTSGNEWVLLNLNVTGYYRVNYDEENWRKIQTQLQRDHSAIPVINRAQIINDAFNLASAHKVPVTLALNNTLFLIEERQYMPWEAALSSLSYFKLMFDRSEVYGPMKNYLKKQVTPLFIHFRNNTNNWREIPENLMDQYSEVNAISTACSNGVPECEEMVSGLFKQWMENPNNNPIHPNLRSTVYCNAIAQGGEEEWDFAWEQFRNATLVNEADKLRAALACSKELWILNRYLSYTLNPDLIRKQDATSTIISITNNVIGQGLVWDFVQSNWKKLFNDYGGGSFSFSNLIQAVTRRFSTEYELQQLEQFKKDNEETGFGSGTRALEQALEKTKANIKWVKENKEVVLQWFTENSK
T1 sequence (P14780 whole entry): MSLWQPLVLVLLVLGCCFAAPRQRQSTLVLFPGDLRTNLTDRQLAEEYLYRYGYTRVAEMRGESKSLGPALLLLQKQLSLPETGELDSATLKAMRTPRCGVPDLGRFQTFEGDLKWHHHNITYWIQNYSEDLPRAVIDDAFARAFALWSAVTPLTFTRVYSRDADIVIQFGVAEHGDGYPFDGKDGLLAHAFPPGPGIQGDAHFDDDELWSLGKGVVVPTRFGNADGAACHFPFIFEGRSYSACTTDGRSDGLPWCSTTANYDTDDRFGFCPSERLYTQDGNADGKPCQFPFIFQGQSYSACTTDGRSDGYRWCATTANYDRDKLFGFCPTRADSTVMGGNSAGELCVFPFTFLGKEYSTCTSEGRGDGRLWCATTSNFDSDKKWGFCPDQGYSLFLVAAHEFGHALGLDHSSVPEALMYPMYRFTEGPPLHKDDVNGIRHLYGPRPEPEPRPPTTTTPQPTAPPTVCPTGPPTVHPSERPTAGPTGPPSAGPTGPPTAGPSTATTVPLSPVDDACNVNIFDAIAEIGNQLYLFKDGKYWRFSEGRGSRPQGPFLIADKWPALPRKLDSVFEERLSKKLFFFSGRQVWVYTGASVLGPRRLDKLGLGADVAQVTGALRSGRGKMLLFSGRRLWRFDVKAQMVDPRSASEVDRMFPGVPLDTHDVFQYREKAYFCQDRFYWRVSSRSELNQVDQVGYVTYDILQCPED
Sequence of 72 kDa type IV collagenase (P08253 whole entry): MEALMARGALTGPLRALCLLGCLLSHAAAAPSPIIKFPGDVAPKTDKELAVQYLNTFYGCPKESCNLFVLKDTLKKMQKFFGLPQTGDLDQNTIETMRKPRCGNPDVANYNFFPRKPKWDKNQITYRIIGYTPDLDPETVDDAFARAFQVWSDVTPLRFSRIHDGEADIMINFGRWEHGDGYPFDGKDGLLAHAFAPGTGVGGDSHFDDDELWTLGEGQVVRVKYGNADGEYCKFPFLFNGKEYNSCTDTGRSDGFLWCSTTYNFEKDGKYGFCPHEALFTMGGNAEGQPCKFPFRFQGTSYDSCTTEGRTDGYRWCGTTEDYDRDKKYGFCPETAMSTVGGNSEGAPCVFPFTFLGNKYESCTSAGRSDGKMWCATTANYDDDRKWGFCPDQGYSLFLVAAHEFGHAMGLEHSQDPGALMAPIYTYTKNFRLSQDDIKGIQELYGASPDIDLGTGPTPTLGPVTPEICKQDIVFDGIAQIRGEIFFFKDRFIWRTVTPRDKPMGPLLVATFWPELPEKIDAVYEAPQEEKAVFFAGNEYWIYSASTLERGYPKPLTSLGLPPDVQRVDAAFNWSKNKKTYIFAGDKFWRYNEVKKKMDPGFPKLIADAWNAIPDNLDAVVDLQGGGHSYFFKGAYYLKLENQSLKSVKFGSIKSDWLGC

On to `O=C(CSc1ccc2ccccc2c1)NO`, for which the IC50 entry in test [1], in test [2] and in test [5] was “Not Active” in each case. Besides, the pIC50 at Aminopeptidase N [3] is 5.47. For the same molecule, the pKi on Aminopeptidase N [4] was 5.46.

As to `CNC(=O)[C@H](Cc1ccccc1)NC(=O)[C@H](CC(C)C)[C@H](CSc1cccs1)C(=O)NO` [BATIMASTAT], the pIC50 is 7.33 in test [6] and 7.60 in test [7].

A word on the pIC50: it is −log10 of the IC50, conventionally taken in molar units. Read a low pIC50 as a large IC50. The pKi is the negative decadic logarithm of the Ki, by convention in mol/L. Read a low pKi as a high Ki.

The values above are taken from ChEMBL document CHEMBL1145216, “N-hydroxy-2-(naphthalene-2-ylsulfanyl)-acetamide, a novel hydroxamic acid-based inhibitor of aminopeptidase N and its anti-angiogenic activity” (Bioorg Med Chem Lett, 2005).
